In article PMC9005971, “Discovery of 2-(4-Acrylamidophenyl)-Quinoline-4-Carboxylic Acid Derivatives as Potent SIRT3 Inhibitors” (Frontiers in Chemistry, 2022):

Tests used:
[1] = tested on: THP-1, MOLM-13, SEM and MV4-11 cells; experiment: Cell apoptosis analysis, MLLr leukemic cells; type: cell-based; details: 72 h, flow cytometry
Experimental: THP-1, MOLM-13, SEM and MV4-11 cells were treated with P6 (0.45–4 µM) or Ara-C (0.1–2.0 µM) for 72 h, collected and resuspended in 1× binding buffer. Cells were incubated with FITC Annexin V and PI double labeling for 30 min in the dark at room temperature and measured by flow cytometry.

MOLM-13 cells = experiment: In vitro antiproliferative CCK-8 assay, MOLM-13; type: cell-based; details: Homo sapiens, 72 h, read-out: IC50 growth inhibition MOLM-13
Experimental: (§1) The proliferation of THP-1, MOLM-13, SEM and MV4-11 cells was tested by CCK-8 assay. Briefly, cells were seeded in 96-well plate with about 5 × 10^3 cells in each well. The cells were treated with P6 or Ara-C (0–10 µM) after 24 h of incubation. CCK-8 reagent ([…]) was added to each well after 72 h of incubation, and cells were incubated at 37°C for 4 h. The light absorbance at 450 nm was measured by using an Opsys microplate reader (Dynex Technologirs, Chantilly, VA, United States). Results are illustrated as percent of cell viability normalized to DMSO-treated control cells.

MV4-11 cells = experiment: In vitro antiproliferative CCK-8 assay, MV4-11; type: cell-based; details: Homo sapiens, 72 h, read-out: IC50 growth inhibition MV4-11
Experimental: as §1

THP-1 cells = experiment: In vitro antiproliferative CCK-8 assay, THP-1; type: cell-based; details: Homo sapiens; for inhibition at 1 µM: dose of 1 μM, mean of three experiments, read-out: THP-1 percentage inhibitory rate
Experimental: as §1

SEM cells = experiment: In vitro antiproliferative CCK-8 assay, SEM; type: cell-based; details: 72 h, read-out: IC50 growth inhibition SEM
Experimental: as §1

SIRT1 = target: T1, SIRT1 (Homo sapiens, UniProt Q96EB6); details: ref Galli et al., 2012; cited from earlier work
T1 sequence (Q96EB6 1-747): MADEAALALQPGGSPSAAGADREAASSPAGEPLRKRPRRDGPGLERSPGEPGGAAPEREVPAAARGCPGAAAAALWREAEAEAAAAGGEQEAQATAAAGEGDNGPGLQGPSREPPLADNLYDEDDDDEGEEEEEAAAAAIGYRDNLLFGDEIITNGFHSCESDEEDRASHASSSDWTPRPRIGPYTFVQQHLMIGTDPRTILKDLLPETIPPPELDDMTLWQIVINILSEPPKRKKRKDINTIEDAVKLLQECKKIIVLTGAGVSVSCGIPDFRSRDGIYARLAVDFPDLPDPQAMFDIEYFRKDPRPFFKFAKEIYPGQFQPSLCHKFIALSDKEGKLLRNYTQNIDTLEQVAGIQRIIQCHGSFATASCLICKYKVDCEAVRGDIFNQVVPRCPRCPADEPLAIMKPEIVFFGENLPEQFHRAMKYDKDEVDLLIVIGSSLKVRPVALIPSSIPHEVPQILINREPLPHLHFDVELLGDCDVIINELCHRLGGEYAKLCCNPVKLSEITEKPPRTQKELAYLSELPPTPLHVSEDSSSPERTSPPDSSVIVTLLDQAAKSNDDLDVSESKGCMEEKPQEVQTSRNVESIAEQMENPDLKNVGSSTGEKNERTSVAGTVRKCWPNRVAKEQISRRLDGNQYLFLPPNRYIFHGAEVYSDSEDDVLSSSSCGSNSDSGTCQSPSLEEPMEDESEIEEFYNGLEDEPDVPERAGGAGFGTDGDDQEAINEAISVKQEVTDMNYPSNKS

SIRT2 = target: T2, SIRT2 (Homo sapiens, UniProt Q8IXJ6); details: ref Galli et al., 2012; cited from earlier work
T2 sequence (Q8IXJ6 1-389): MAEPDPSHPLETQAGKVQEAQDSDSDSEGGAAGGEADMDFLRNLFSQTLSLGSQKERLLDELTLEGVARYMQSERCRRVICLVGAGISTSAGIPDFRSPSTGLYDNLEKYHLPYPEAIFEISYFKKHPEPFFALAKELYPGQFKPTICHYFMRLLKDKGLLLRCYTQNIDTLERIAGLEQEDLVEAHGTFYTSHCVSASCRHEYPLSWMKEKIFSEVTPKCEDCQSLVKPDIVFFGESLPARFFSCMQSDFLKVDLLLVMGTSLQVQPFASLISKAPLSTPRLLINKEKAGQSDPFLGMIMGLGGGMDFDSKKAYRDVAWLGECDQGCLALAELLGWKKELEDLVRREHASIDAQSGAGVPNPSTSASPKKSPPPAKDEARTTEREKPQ

SIRT3 = target: T3, SIRT3 (Homo sapiens, UniProt Q9NTG7); experiment: SIRT3 enzyme inhibitory assay (fluorescence); type: biochemical; details: dose of 10 μM; mean of three experiments; read-out: SIRT3 percentage inhibitory rate
T3 sequence (Q9NTG7 1-399): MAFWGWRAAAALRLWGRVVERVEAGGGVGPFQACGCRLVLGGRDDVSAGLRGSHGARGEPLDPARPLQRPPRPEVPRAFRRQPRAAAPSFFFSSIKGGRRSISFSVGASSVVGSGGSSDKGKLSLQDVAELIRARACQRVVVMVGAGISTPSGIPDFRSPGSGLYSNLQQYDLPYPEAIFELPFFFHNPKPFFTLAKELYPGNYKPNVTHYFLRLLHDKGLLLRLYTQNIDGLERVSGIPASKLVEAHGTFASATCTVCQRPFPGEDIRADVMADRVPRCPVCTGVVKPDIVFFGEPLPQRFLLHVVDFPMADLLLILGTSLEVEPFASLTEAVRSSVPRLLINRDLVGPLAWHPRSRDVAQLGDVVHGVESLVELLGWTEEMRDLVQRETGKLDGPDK
Experimental: All of the enzymatic reactions were conducted at 37°C for 30 min. […] The compounds were diluted in 10% DMSO and 5 ul of the dilution was added to each reaction mixture (50 ul). The assay was performed by quantitating the amount of fluorescent product generated from the enzyme reaction. Fluorescence intensity is then analyzed at excitation wavelength of 350–360 nm and emission wavelength of 450–460 nm on a SpectraMax M5 microtiter plate reader. The IC50 values were calculated using Prism GraphPad software.

Structure (SMILES) | inhibition at 1 µM (THP-1 cells) | inhibition at 10 µM (SIRT3) | further results
Nc1ccn([C@@H]2O[C@H](CO)[C@@H](O)[C@@H]2O)c(=O)n1 [Ara-C, Cytarabine, reference compound] | 80.4 ± 3.22% |  | induction of apoptosis [1]: obvious apoptosis; IC50 (MOLM-13 cells): 0.06 µM; IC50 (MV4-11 cells): 0.54 µM; IC50 (THP-1 cells; 72 h, CCK-8, read-out: IC50 growth inhibition THP-1): 0.52 µM; IC50 (SEM cells): 0.06 µM
c1cncc(-c2c[nH]nn2)c1 [Compound 3-TYP] |  |  | IC50 (SIRT1): 0.088 µM; IC50 (SIRT2): 0.092 µM
C=CC(=O)Nc1ccc(-c2cc(C(=O)Nc3ccc(Br)cc3)c3ccccc3n2)cc1 [Compound P10, 2-(4-Acryloylamino-phenyl)-quinoline-4-carboxylic acid (4-bromo-phenyl)-amide] | 44.3 ± 1.96% | 26.8 ± 1.88% | 
C=CC(=O)Nc1ccc(-c2cc(C(=O)Nc3ccc(CC)cc3)c3ccccc3n2)cc1 [Compound P13, 2-(4-Acryloylamino-phenyl)-quinoline-4-carboxylic acid (4-ethyl-phenyl)-amide] | 59.9 ± 3.27% | 40.2 ± 2.91% | 
C=CC(=O)Nc1ccc(-c2cc(C(=O)Nc3ccc4c(c3)OCO4)c3ccccc3n2)cc1 [Compound P20, 2-(4-Acryloylamino-phenyl)-quinoline-4-carboxylic acid benzo [1,3]dioxol-5-ylamide] | 28.1 ± 1.76% | 45.1 ± 2.55% | 
C=CC(=O)Nc1ccc(-c2cc(C(=O)Nc3ccc(Cl)cc3)c3ccccc3n2)cc1 [Compound P11, 2-(4-Acryloylamino-phenyl)-quinoline-4-carboxylic acid (4-chloro-phenyl)-amide] | 58 ± 2.08% | 35.7 ± 1.54% | 
C=CC(=O)Nc1ccc(-c2cc(C(=O)N3CCN(c4ccc(Cl)cc4)CC3)c3ccccc3n2)cc1 [Compound P5, N-(4-{4-[4-(4-Chloro-phenyl)-piperazine-1-carbonyl]-quinolin-2-yl}-phenyl)-acrylamide] | 56 ± 2.66% | 22.6 ± 1.87% | 
